Laboratory results taken from US20080009025A1, “PROTEIN KINASE REGULATION” (priority 1999, published 2008).
Where a SMILES comes first, the peptide text is derived from it.

Experiments:
PDK1 = assay: Activation of AGC kinase substrates by PDK1 (Crosstide assay); assay type: biochemical, human; conditions: for inhibition of the activation of S6K1-T2[T412E] and SGK1[T422D] by PDK1 PIF pocket mutants: PDK1[K115A], [I119A], [Q150A], [L155A]
Description: FIG. 20. Effect of PIFtide on the activation of S6K1 and SGK1 by PDK1 PIF pocket mutants (155A, 115A, 119A, 150A). GST-PDK1, GST-PDK1 L155E, 155A, 115A, 119A and 150A were tested for their ability to activate His-S6K1 412E and GST-SGK1 422D. The phosphorylation and activation of substrates was performed as described in FIG. 17. When PIFtide was included in the reaction, it was pre-incubated on ice for ˜15 min until the reaction was initiated with the addition of ATP-Mg.
Activation of AGC kinase PDK1 substrates. Phosphorylation reactions were carried out as above except that non-radioactive ATP replaced [γ-^32P]ATP. Following 10 min at 30° C., cocktail (30 μl) containing 50 mM Tris-HCl pH 7.5, 0.1% (by vol) 2-mercaptoethanol, 10 mM magnesium chloride, […], 0.5 μM microcystin-LR and 100 μM peptide substrate crosstide (GRPRTSSFAEG) and [γ-^32P]ATP (˜600 c.p.m./pmol). Reactions were stopped by the addition of 25 μl of 0.2 M EDTA pH 8.0, spotted onto P81 phosphocellulose paper, washed and analysed as described for the assay of MAP kinase. The amount of PDK1 was in the assay was varied so that the assay was in the linear range. One unit of activity is deficed as phosphorylation 1 nmol of substrate in 1 min.

p70 S6K = assay: IGF1-induced activation and Thr412 phosphorylation of HA-p70 S6K in co-transfected 293 cells; assay type: cell-based, human
Description: FIG. 3. PIF inhibits p70 S6K activation and phosphorylation at Thr252 and Thr412. 293 cells were co-transfected with constructs expressing the wild type (wt) full length HA-p70 S6K (A) or the full length HA-T412E p70 S6K (B) with either GST-PIF, GST-F977A-PIF, or GST. 24 h post transfection the cells were serum starved for 16 h and them stimulated for 40 min with 100 nM IGF 1. The cells were lysed and HA-p70 S6K was immunoprecipitated and assayed as described in methods. Protein from each lysate (10 μg for the HA blots or 20 μg for the T412-P blot) was electrophoresed on a 10% SDS/polyacrylamide gel and immunoblotted using HA-antibody or the T412-P antibody. The T412-P antibody was incubated with either the synthetic peptide (10 μg/ml) corresponding to residues 401 to 418 of p70 S6K phosphorylated at Thr412 (phosph-412E peptide), or the unphosphorylated peptide (de-phospho-Thr412 peptide). The T412-P antibody consistently recognises a protein termed “non specific band” in cell lysates which migrate at (75 kDa) derived from non transfected and transfected cells. […] It is not co-immunoprecipitated with HA-p70 S6K (date not shown). The HA-p70 S6K activities shown are the average ±SEM for a single experiment carried out in triplicate. Similar results were obtained in 8 separate experiments (A) and 2 experiments (B). The immunoblotting was carried out in 3 separate experiments with similar results.
Transient Transfection Experiments. The DNA constructs encoding for the wild type and mutant forms of HA-p70 S6K in the pMT2 vector used in this study have been described previously. […] The constructs used to express GST-PIF and the mutant GST-F977A-PIF [22] are in the pEBG2T vector. The empty pEBG2T vector was used to express GST protein in control experiments. DNA constructs used in this study were purified from bacteria using the Qiagen plasmid Mega kit according to the manufacturer's protocol.
293 cells cultured on 10 cm diameter dishes in Dulbecco's Modified Eagle's Medium containing 10% (by vol) foetal bovine serum, were transfected with 2 μg of DNA construct encoding either wild type or mutant HA-p70 S6K or HA-PKBα, and 10 μg of DNA construct encoding either GST-PIF, GST-F977A-PIF, GST, Myc-PDK1, kinase-dead Myc-PDK1, or the empty pCMV5 vector using a modified calcium phosphate method. 24 h post transfection the cells were deprived of serum for 16 h, and exposed to IGF1 (100 nM) for the time indicated. The cells were lysed in 1 ml of lysis buffer (50 mM Tris/HCl pH 7.5, 1 mM EDTA, 1 mM EGTA, 1% (by vol) Triton X-100, 1 mM sodium orthovanadate, 10 mM sodium β-glycerophosphate, 50 mM NaF, 5 mM sodium pyrophosphate, 1 μM microcystin-LR, 0.27 M sucrose and protease cocktail tablets), cleared by centrifugation, and 50 μg of protein was subjected to immunoprecipitation with anti HA monoclonal antibody. The protein concentrations of the lysates were determined by the Bradford method.
Kinase assays. The HA-p70 S6K or HA-PKBα immunoprecipitates were washed and assayed for kinase activity using the peptide Crosstide (GRPRTSSFAEG) as described previously for PKBα [28]. One unit of activity, U, was that amount which catalysed the phosphorylation of 1 nmol of substrate in one minute.
Immunoblotting for dephosphorylated and Thr412-phosphorylated p70 S6 kinase. Cell lysates were made 1% SDS and the indicated amounts of protein were subjected to SDS/Polyacrylamide gel electrophoresis, subsequently transferred to nitrocellulose and immunoblotted using the indicated monoclonal antibody or the T412-P phospho-specific antibody (0.4 μg/ml) in 50 mM Tris/HCl pH7.5, 0.15M NaCl, 0.5% (by vol) Tween and 10% (by mass) skimmed milk. Detection was performed using the enhanced chemiluminescence reagent (Amersham Pharmacia Biotech).

Compound	inhibition of the activation of S6K1[T412E] by wild type PDK1 (PDK1; 2 μM PIFtide)	inhibition of the activation of S6K1-T2[T412E] and SGK1[T422D] by PDK1 PIF pocket mutants (PDK1; 2 μM PIFtide)	inhibition of the activation of S6K1-T2[T412E] and SGK1[T422D] by PDK1 PIF pocket mutants (PDK1; 35 μM PIFtide)	PDK1's ability to phosphorylate and activate SGK1, ΔPH-PKBα, S6K1[T412E], SGK1[T422D] and ΔPH-PKBα[S473D] (PDK1; in the presence of PIFtide)	basal HA-p70 S6K activity (p70 S6K; 293 cells co-expressing HA-p70 S6K, unstimulated)	HA-p70 S6K activity after IGF1 stimulation (p70 S6K; 293 cells, 100 nM IGF1 40 min)	IGF1-induced phosphorylation of HA-p70 S6K at Thr412 (p70 S6K; 293 cells, T412-P antibody)	IGF1 induced activation and phosphorylation at Thr412 of the p70 S6K-T2 mutant (p70 S6K; 293 cells, data not shown)
CC[C@H](C)[C@H](NC(=O)[C@H](Cc1ccc(O)cc1)NC(=O)[C@H](CC(=O)O)NC(=O)[C@H](Cc1ccccc1)NC(=O)[C@H](CC(=O)O)NC(=O)[C@H](CCCNC(=N)N)NC(=O)[C@H](Cc1ccccc1)NC(=O)[C@H](CCSC)NC(=O)[C@H](CCC(=O)O)NC(=O)[C@H](CCC(N)=O)NC(=O)[C@H](CCC(=O)O)NC(=O)[C@H](CCC(=O)O)NC(=O)[C@H](CCC(=O)O)NC(=O)[C@H](CO)NC(=O)[C@H](CC(C)C)NC(=O)[C@@H](NC(=O)[C@H](CCCNC(=N)N)NC(=O)[C@@H]1CCCN1C(=O)[C@H](CCC(=O)O)NC(=O)[C@@H](N)CCCNC(=N)N)[C@@H](C)CC)C(=O)N[C@@H](C)C(=O)N[C@@H](CC(=O)O)C(=O)N[C@@H](Cc1c[nH]c2ccccc12)C(=O)N[C@@H](CS)C(=O)O [PIFtide] (H-REPRILSEEEQEMFRDFDYIADWC-OH; N-terminus and C-terminus assumed)	> 20 fold	~50%	over 95%	markedly inhibited				
GST-PIF: glutathione S-transferase fused to the last 77 residues of PRK2 (PIF)					virtually undetectable	only a very slight increase	failed to induce	abolished
